From patent publication US20250381198A1 (Melt Pharmaceuticals, Inc., priority 2024, published 2025) come the findings set out here.

Test [1] deals with subjects undergoing cataract extraction with lens replacement (CELR). Description: Phase 3: surgery completion. It is filed as in vivo, human. The source says: A plot of the Kaplan-Meier Curve for time to achieve preoperative target sedation level for the all-treated analysis set is provided in FIG. 5.
Test [2] shares this test system. Put plainly: Phase 3: patient satisfaction (5-point Likert scale). In kind it is in vivo, human. More on the design: key to Patient Satisfaction Scores, Min / Patient Satisfaction Scores, Max: 5=very satisfied; 4=satisfied; 3=neither satisfied nor dissatisfied; 2=dissatisfied; 1=very dissatisfied. Conditions: ITT analysis set. As to the method: Patient satisfaction with the operative experience was measured at the Follow-Up visit using a 5-point Likert scale (5=very satisfied; 4=satisfied; 3=neither satisfied nor dissatisfied; 2=dissatisfied; 1=very dissatisfied). […] The means were compared using 2-sample t-tests and the Satterthwaite method. The proportion of satisfied responses (‘Very Satisfied’ or ‘Satisfied’, pooled) were tested using a Pearson's chi-square test; and a Fisher's exact test was used instead if any expected values were <5.

Consider `Cc1ncc2n1-c1ccc(Cl)cc1C(c1ccccc1F)=NC2` [Midazolam, 8-chloro-6-(2-fluorophenyl)-1-methyl-4H-imidazo[1,5-a][1,4]benzodiazepine], for which, in test [1] (ITT Analysis Set), the “Completed surgery without intervention due to pain or anxiety” value is listed as 89 (100.0) n (%) and the Completed the surgery is 89 (100.0) n (%). For the same molecule, the “Subjects who completed the surgery” value in test [1] (ITT analysis set) turned out to be 100.0%. Moreover, the “Subjects Completed Surgery, %” value in test [1] (Summary of Disposition, value in parentheses, percent of ITT set) is reported as “(100)”. In test [2] (5-point Likert scale), the “Patient Satisfaction Scores, Max” value was 5; the “Patient Satisfaction Scores, Mean ± SD” value stood at 4.8 ± 0.55; the “Patient Satisfaction Scores, Median” value stood at 5.0; the “Patient Satisfaction Scores, Min” value was found to be 2. The “Patient Satisfaction Score 1 = Very Dissatisfied” value in test [2] is recorded as 0 n.
